Experimental data published in patent US8338420B1, “Treatment of Parkinson's disease and enhancement of dopamine signal using PDE 10 inhibitor” (Mitsubishi Tanabe Pharma Corporation, priority 2002, dated 2012).

Target: T1, PDE6 (Bos taurus, UniProt P11541+P23439)
T1 construct: tissue Tokyo Shibaura Zoki; host or cells: bovine retina, rod outer segments, gel filtration, then limited trypsin treatment
T1 sequence (P11541 2-856 limits assumed): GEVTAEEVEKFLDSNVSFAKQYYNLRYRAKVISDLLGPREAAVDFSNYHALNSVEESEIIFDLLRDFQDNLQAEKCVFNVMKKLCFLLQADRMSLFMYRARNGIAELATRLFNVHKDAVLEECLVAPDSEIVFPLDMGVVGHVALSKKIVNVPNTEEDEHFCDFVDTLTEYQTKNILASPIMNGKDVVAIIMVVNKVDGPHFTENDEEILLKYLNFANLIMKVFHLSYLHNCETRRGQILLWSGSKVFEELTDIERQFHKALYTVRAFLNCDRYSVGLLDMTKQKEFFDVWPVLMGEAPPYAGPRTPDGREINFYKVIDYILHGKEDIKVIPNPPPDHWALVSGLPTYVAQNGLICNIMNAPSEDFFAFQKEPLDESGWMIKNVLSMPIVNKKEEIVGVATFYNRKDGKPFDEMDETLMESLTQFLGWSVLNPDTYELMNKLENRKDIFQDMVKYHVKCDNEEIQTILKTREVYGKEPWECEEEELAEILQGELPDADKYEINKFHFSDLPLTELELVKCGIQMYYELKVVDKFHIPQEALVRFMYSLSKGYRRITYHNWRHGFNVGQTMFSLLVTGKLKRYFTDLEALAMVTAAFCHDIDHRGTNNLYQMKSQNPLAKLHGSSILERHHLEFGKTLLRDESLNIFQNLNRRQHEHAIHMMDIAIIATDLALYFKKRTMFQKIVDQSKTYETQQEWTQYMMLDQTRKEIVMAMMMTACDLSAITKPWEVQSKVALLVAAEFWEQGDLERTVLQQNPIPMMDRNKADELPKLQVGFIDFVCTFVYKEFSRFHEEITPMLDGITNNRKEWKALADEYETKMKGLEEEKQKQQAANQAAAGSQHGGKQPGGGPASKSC
T1 sequence (P23439 2-850 limits assumed): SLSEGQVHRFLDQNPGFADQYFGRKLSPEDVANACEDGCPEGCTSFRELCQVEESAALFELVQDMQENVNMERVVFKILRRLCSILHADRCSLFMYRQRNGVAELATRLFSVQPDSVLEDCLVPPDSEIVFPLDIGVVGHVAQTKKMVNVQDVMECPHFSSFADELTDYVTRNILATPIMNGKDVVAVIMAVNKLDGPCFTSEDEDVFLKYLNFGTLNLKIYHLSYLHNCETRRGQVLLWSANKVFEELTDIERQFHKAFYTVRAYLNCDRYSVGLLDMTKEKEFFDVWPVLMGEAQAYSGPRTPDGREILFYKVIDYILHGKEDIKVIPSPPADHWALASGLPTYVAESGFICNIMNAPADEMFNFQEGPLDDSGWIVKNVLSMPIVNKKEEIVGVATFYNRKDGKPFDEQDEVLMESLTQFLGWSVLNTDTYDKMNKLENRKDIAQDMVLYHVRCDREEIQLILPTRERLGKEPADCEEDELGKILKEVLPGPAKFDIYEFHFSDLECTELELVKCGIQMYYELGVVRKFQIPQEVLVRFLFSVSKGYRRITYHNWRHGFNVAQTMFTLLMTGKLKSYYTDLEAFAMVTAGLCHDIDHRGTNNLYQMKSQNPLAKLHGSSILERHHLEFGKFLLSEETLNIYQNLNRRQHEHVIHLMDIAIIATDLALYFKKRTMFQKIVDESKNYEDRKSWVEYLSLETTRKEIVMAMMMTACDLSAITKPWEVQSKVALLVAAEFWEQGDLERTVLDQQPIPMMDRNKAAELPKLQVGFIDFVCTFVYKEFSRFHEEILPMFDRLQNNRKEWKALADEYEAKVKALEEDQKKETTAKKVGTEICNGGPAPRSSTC
Assay: PDE assay, trypsin-activated PDE6 from bovine retina
Type: biochemical
Details: substrate about 12 nM [3H]-cGMP and 10 μM cGMP
Description: From the bovine eyeball, purchased from Tokyo Shibaura Zoki, co., Ltd., retina (pale red colored) which is present as a membrane on the pigmented layer was collected and stored at −70° C.
To buffer A [16 mM MOPS-NaOH, pH7.5, 1.6 mM dithiothreitol, 8 mM magnesium chloride, 96 mM potassium chloride, 48 mM sodium chloride, 0.16 mM phenylmethylsulfonyl fluoride, 10 μM pepstatin A, 10 μM leupeptin] (20 ml), sucrose (6 g) was dissolved. Added thereto was the above-mentioned retina (about 7 g), and the mixture was stirred for 30 minutes while cutting the retina by scissors. The mixture was applied to centrifugation at 2000 rpm, at 4° C. for 5 minutes and the supernatant was collected. To the resultant residue was added buffer B[10 mM MOPS, pH7.5, 1 mM dithiothreitol, 5 mM magnesium chloride, 60 mM potassium chloride, 30 mM sodium chloride, 0.1 mM phenylmethylsulfonyl fluoride, 10 μM pepstatin A, 10 μM leupeptin] (40 ml), and the mixture was stirred by rolling several times. This was applied to centrifugation and the resultant supernatant was combined with the above obtained supernatant. This is further centrifuged at 7000 rpm, at 4° C., for 5 minutes, and the precipitates were obtained as crude rod outer segment (ROS). […]
Further, PDE assay was carried out using the above-eluted fractions as an enzyme solution, and cGMP-hydrolyzing activity was measured. […]

IC50: 290 nM
SMILES: COc1ccc(-c2cc(N3CCCC3)nc(/C=C/c3nc(-n4ccnc4)c4ccccc4n3)n2)cc1OC [Compound A, 2-{(E)-2-[4-(1-imidazolyl)-quinazolin-2-yl]}ethenyl-4-(3,4-dimethoxy)phenyl-6-(pyrrolidin-1-yl)pyrimidine]
